Assay results taken from US6645983B1, “Pharmaceutical compositions comprising 4-quinolones for treating cancers” (Laboratoire L. Lafon, priority 1999, dated 2003).

system: not listed separately; experiment: Determination of the maximum tolerated dose (MTD); details: B6D2F1/Jico, mouse, in vivo, ip; single intraperitoneal administration, doses 2.5 to 160 mg/kg, survival over 14 days
Experimental: The evaluation of the maximum tolerated dose was performed on 4- to 6-week-old B6D2F1/Jico mice. The compounds were administered intraperitoneally at increasing doses ranging from 2.5 to 160 mg/kg. The value of the MTD (expressed in mg/kg) is determined from the observation of the survival rate of the animals over a 14-day period after a single administration of the product under consideration. The change in weight of the animals is also monitored during this period. When the MTD value is greater than 160 mg/kg, the MTD value is considered as being 160 mg/kg by default.

Compound	MTD at 14 day
COc1ccc(-c2cn(C)c3c(OC)ccc(-c4ccccc4)c3c2=O)cc1 [CRL8405, 8-Methoxy-3-(4-methoxyphenyl)-1-methyl-5-phenyl-1,4-dihydro-4-quinolinone]	> 160 mg/kg
COc1ccc(OC)c2c(=O)c(-c3ccccc3)c[nH]c12 [CRL8353, 5,8-Dimethoxy-3-phenyl-1,4-dihydro-4-quinolinone]	> 160 mg/kg
COc1cc2[nH]cc(-c3ccccc3)c(=O)c2cc1OC [CRL8355, 6,7-Dimethoxy-3-phenyl-1,4-dihydro-4-quinolinone]	> 160 mg/kg
COc1ccc(-c2cn(C)c3c(OC)ccc(OC)c3c2=O)cc1 [CRL8371]	40 mg/kg

system: T24; experiment: MTT test, cytotoxic activity on non-clonogenic cell lines; type: cell-based; details: Homo sapiens, T-24; 10^−5 M, 72 hours of incubation, control condition = 100%, mean value; read-out: mean optical density as percentage of control, T24
Experimental: (§1) The principle of the MTT test is based on the mitochondrial reduction, by the metabolically active live cells, of the yellow-colored product MTT (3-(4,5-dimethylthiazol-2-yl)-2,5-diphenyltetrazolium bromide) to a blue-colored product, formazan. The amount of formazan thus obtained is directly proportional to the amount of live cells present in the culture well(s). This amount of formazan is measured by spectrophotometry.
(§2) The cell lines are maintained as a monolayer culture at 37° C. in stoppered culture dishes containing MEM 25 MM HEPES (Minimum Essential Medium) base medium. This medium is suited to the growth of a range of various mammalian diploid or primary cells. This medium is then supplemented with:
(§3) The 12 human cancer cell lines which were used were obtained from the American Type Culture Collection (ATCC, Rockville, Md., USA). These 12 cell lines are:
(§4) J82 (code ATCC: HTB-1) and T24 (code ATCC: HTB-4) which are two bladder cancers,
(§5) Experimentally, 100 μl of a cell suspension containing 20 000 to 50 000 (depending on the cell type used) cells/ml of culture medium are inoculated -in 96-well flat-bottomed multi-well plates and are left to stand in an incubator at 37° C., 5% CO2 and 70% humidity. After an incubation time of 24 hours, the culture medium is replaced with 100 μl of fresh medium containing either the various test compounds—at concentrations varying from 10^−5 to 10^−10 M—or the solvent having served for dissolving the products to be tested (control condition). […] The microplates are thus incubated for 3 hours at 37° C., then centrifuged for 10 minutes at 400 g. The yellowish solution of MTT is removed and the blue formazan crystals formed in the cell region are dissolved in 100 μl or DMSO. The microplates are then shaken for 5 minutes. […] Software incorporated in the spectrophotometer calculates the average optical density values and the standard deviation (SD) and standard error of mean (SEM) values.

Compound	viability at 10 µM
COc1ccc(-c2cn(C)c3c(OC)ccc(-c4ccccc4)c3c2=O)cc1 [CRL8405, 8-Methoxy-3-(4-methoxyphenyl)-1-methyl-5-phenyl-1,4-dihydro-4-quinolinone]	57.8%
COc1ccc(OC)c2c(=O)c(-c3ccccc3)c[nH]c12 [CRL8353, 5,8-Dimethoxy-3-phenyl-1,4-dihydro-4-quinolinone]	68.6%
COc1cc2[nH]cc(-c3ccccc3)c(=O)c2cc1OC [CRL8355, 6,7-Dimethoxy-3-phenyl-1,4-dihydro-4-quinolinone]	89.4%
COc1ccc(-c2cn(C)c3c(OC)ccc(OC)c3c2=O)cc1 [CRL8371]	52.2%

system: J82; experiment: as above; type: cell-based; details: Homo sapiens, 10^−5 M, 72 hours of incubation, control condition = 100%, mean value, read-out: mean optical density as percentage of control, J82
Experimental: as §1, §2, §3, §4, §5

Compound	viability at 10 µM
COc1ccc(-c2cn(C)c3c(OC)ccc(-c4ccccc4)c3c2=O)cc1 [CRL8405, 8-Methoxy-3-(4-methoxyphenyl)-1-methyl-5-phenyl-1,4-dihydro-4-quinolinone]	93.9%
COc1ccc(OC)c2c(=O)c(-c3ccccc3)c[nH]c12 [CRL8353, 5,8-Dimethoxy-3-phenyl-1,4-dihydro-4-quinolinone]	79.1%
COc1cc2[nH]cc(-c3ccccc3)c(=O)c2cc1OC [CRL8355, 6,7-Dimethoxy-3-phenyl-1,4-dihydro-4-quinolinone]	94.9%
COc1ccc(-c2cn(C)c3c(OC)ccc(OC)c3c2=O)cc1 [CRL8371]	76.3%

system: SW1088; experiment: as above; type: cell-based; details: Homo sapiens, 10^−5 M, 72 hours of incubation, control condition = 100%, mean value, read-out: mean optical density as percentage of control, SW1088
Experimental: as §1, §2, §3
SW1088 (code ATCC: HTB-12) which is an astro-cytoma,
as §5

Compound	viability at 10 µM
COc1ccc(-c2cn(C)c3c(OC)ccc(-c4ccccc4)c3c2=O)cc1 [CRL8405, 8-Methoxy-3-(4-methoxyphenyl)-1-methyl-5-phenyl-1,4-dihydro-4-quinolinone]	40.8%
COc1ccc(OC)c2c(=O)c(-c3ccccc3)c[nH]c12 [CRL8353, 5,8-Dimethoxy-3-phenyl-1,4-dihydro-4-quinolinone]	74%
COc1cc2[nH]cc(-c3ccccc3)c(=O)c2cc1OC [CRL8355, 6,7-Dimethoxy-3-phenyl-1,4-dihydro-4-quinolinone]	97.5%
COc1ccc(-c2cn(C)c3c(OC)ccc(OC)c3c2=O)cc1 [CRL8371]	40.8%

system: A-427; experiment: as above; type: cell-based; details: Homo sapiens, 10^−5 M, 72 hours of incubation, control condition = 100%, mean value, read-out: mean optical density as percentage of control, A-427
Experimental: as §1, §2, §3, §5

Compound	viability at 10 µM
COc1ccc(-c2cn(C)c3c(OC)ccc(-c4ccccc4)c3c2=O)cc1 [CRL8405, 8-Methoxy-3-(4-methoxyphenyl)-1-methyl-5-phenyl-1,4-dihydro-4-quinolinone]	19.4%
COc1ccc(OC)c2c(=O)c(-c3ccccc3)c[nH]c12 [CRL8353, 5,8-Dimethoxy-3-phenyl-1,4-dihydro-4-quinolinone]	52.5%
COc1cc2[nH]cc(-c3ccccc3)c(=O)c2cc1OC [CRL8355, 6,7-Dimethoxy-3-phenyl-1,4-dihydro-4-quinolinone]	103%
COc1ccc(-c2cn(C)c3c(OC)ccc(OC)c3c2=O)cc1 [CRL8371]	30.8%

system: A549; experiment: as above; type: cell-based; details: Homo sapiens, 10^−5 M, 72 hours of incubation, control condition = 100%, mean value, read-out: mean optical density as percentage of control, A549
Experimental: as §1, §2, §3, §5

Compound	viability at 10 µM
COc1ccc(-c2cn(C)c3c(OC)ccc(-c4ccccc4)c3c2=O)cc1 [CRL8405, 8-Methoxy-3-(4-methoxyphenyl)-1-methyl-5-phenyl-1,4-dihydro-4-quinolinone]	32%
COc1ccc(OC)c2c(=O)c(-c3ccccc3)c[nH]c12 [CRL8353, 5,8-Dimethoxy-3-phenyl-1,4-dihydro-4-quinolinone]	42.3%
COc1cc2[nH]cc(-c3ccccc3)c(=O)c2cc1OC [CRL8355, 6,7-Dimethoxy-3-phenyl-1,4-dihydro-4-quinolinone]	98.6%
COc1ccc(-c2cn(C)c3c(OC)ccc(OC)c3c2=O)cc1 [CRL8371]	42.9%

system: U-373MG; experiment: as above; type: cell-based; details: Homo sapiens, U373 MG; 10^−5 M, 72 hours of incubation, control condition = 100%, mean value; read-out: mean optical density as percentage of control, U-373MG
Experimental: as §1, §2, §3, §5

Compound	viability at 10 µM
COc1ccc(-c2cn(C)c3c(OC)ccc(-c4ccccc4)c3c2=O)cc1 [CRL8405, 8-Methoxy-3-(4-methoxyphenyl)-1-methyl-5-phenyl-1,4-dihydro-4-quinolinone]	28.8%
COc1ccc(OC)c2c(=O)c(-c3ccccc3)c[nH]c12 [CRL8353, 5,8-Dimethoxy-3-phenyl-1,4-dihydro-4-quinolinone]	54.5%
COc1cc2[nH]cc(-c3ccccc3)c(=O)c2cc1OC [CRL8355, 6,7-Dimethoxy-3-phenyl-1,4-dihydro-4-quinolinone]	97.7%
COc1ccc(-c2cn(C)c3c(OC)ccc(OC)c3c2=O)cc1 [CRL8371]	42.8%

system: MCF7; experiment: as above; type: cell-based; details: Homo sapiens, 10^−5 M, 72 hours of incubation, control condition = 100%, mean value, read-out: mean optical density as percentage of control, MCF7
Experimental: as §1, §2, §3, §5

Compound	viability at 10 µM
COc1ccc(-c2cn(C)c3c(OC)ccc(-c4ccccc4)c3c2=O)cc1 [CRL8405, 8-Methoxy-3-(4-methoxyphenyl)-1-methyl-5-phenyl-1,4-dihydro-4-quinolinone]	68.2%
COc1ccc(OC)c2c(=O)c(-c3ccccc3)c[nH]c12 [CRL8353, 5,8-Dimethoxy-3-phenyl-1,4-dihydro-4-quinolinone]	49.6%
COc1cc2[nH]cc(-c3ccccc3)c(=O)c2cc1OC [CRL8355, 6,7-Dimethoxy-3-phenyl-1,4-dihydro-4-quinolinone]	94.8%
COc1ccc(-c2cn(C)c3c(OC)ccc(OC)c3c2=O)cc1 [CRL8371]	45.6%

system: PC-3; experiment: as above; type: cell-based; details: Homo sapiens, 10^−5 M, 72 hours of incubation, control condition = 100%, mean value, read-out: mean optical density as percentage of control, PC-3
Experimental: as §1, §2, §3, §5

Compound	viability at 10 µM
COc1ccc(-c2cn(C)c3c(OC)ccc(-c4ccccc4)c3c2=O)cc1 [CRL8405, 8-Methoxy-3-(4-methoxyphenyl)-1-methyl-5-phenyl-1,4-dihydro-4-quinolinone]	85.5%
COc1ccc(OC)c2c(=O)c(-c3ccccc3)c[nH]c12 [CRL8353, 5,8-Dimethoxy-3-phenyl-1,4-dihydro-4-quinolinone]	81%
COc1cc2[nH]cc(-c3ccccc3)c(=O)c2cc1OC [CRL8355, 6,7-Dimethoxy-3-phenyl-1,4-dihydro-4-quinolinone]	100%
COc1ccc(-c2cn(C)c3c(OC)ccc(OC)c3c2=O)cc1 [CRL8371]	54.2%

system: T-47D; experiment: as above; type: cell-based; details: Homo sapiens, T47D; 10^−5 M, 72 hours of incubation, control condition = 100%, mean value; read-out: mean optical density as percentage of control, T-47D
Experimental: as §1, §2, §3, §5

Compound	viability at 10 µM
COc1ccc(-c2cn(C)c3c(OC)ccc(-c4ccccc4)c3c2=O)cc1 [CRL8405, 8-Methoxy-3-(4-methoxyphenyl)-1-methyl-5-phenyl-1,4-dihydro-4-quinolinone]	77.1%
COc1ccc(OC)c2c(=O)c(-c3ccccc3)c[nH]c12 [CRL8353, 5,8-Dimethoxy-3-phenyl-1,4-dihydro-4-quinolinone]	87.2%
COc1cc2[nH]cc(-c3ccccc3)c(=O)c2cc1OC [CRL8355, 6,7-Dimethoxy-3-phenyl-1,4-dihydro-4-quinolinone]	98.5%
COc1ccc(-c2cn(C)c3c(OC)ccc(OC)c3c2=O)cc1 [CRL8371]	49.3%

system: LoVo; experiment: as above; type: cell-based; details: Homo sapiens, 10^−5 M, 72 hours of incubation, control condition = 100%, mean value, read-out: mean optical density as percentage of control, LoVo
Experimental: as §1, §2, §3, §5

Compound	viability at 10 µM
COc1ccc(-c2cn(C)c3c(OC)ccc(-c4ccccc4)c3c2=O)cc1 [CRL8405, 8-Methoxy-3-(4-methoxyphenyl)-1-methyl-5-phenyl-1,4-dihydro-4-quinolinone]	32.3%
COc1ccc(OC)c2c(=O)c(-c3ccccc3)c[nH]c12 [CRL8353, 5,8-Dimethoxy-3-phenyl-1,4-dihydro-4-quinolinone]	85.5%
COc1cc2[nH]cc(-c3ccccc3)c(=O)c2cc1OC [CRL8355, 6,7-Dimethoxy-3-phenyl-1,4-dihydro-4-quinolinone]	98.7%
COc1ccc(-c2cn(C)c3c(OC)ccc(OC)c3c2=O)cc1 [CRL8371]	45.6%

system: U-87MG; experiment: as above; type: cell-based; details: Homo sapiens, U-87 MG; 10^−5 M, 72 hours of incubation, control condition = 100%, mean value; read-out: mean optical density as percentage of control, U-87MG
Experimental: as §1, §2, §3, §5

Compound	viability at 10 µM
COc1ccc(-c2cn(C)c3c(OC)ccc(-c4ccccc4)c3c2=O)cc1 [CRL8405, 8-Methoxy-3-(4-methoxyphenyl)-1-methyl-5-phenyl-1,4-dihydro-4-quinolinone]	25.8%
COc1ccc(OC)c2c(=O)c(-c3ccccc3)c[nH]c12 [CRL8353, 5,8-Dimethoxy-3-phenyl-1,4-dihydro-4-quinolinone]	107%
COc1cc2[nH]cc(-c3ccccc3)c(=O)c2cc1OC [CRL8355, 6,7-Dimethoxy-3-phenyl-1,4-dihydro-4-quinolinone]	94.4%
COc1ccc(-c2cn(C)c3c(OC)ccc(OC)c3c2=O)cc1 [CRL8371]	58.7%

system: HCT-15; experiment: as above; type: cell-based; details: Homo sapiens, 10^−5 M, 72 hours of incubation, control condition = 100%, mean value, read-out: mean optical density as percentage of control, HCT-16
Experimental: as §1, §2, §3, §5

Compound	viability at 10 µM
COc1ccc(-c2cn(C)c3c(OC)ccc(-c4ccccc4)c3c2=O)cc1 [CRL8405, 8-Methoxy-3-(4-methoxyphenyl)-1-methyl-5-phenyl-1,4-dihydro-4-quinolinone]	15.9%
COc1ccc(OC)c2c(=O)c(-c3ccccc3)c[nH]c12 [CRL8353, 5,8-Dimethoxy-3-phenyl-1,4-dihydro-4-quinolinone]	55.7%
COc1cc2[nH]cc(-c3ccccc3)c(=O)c2cc1OC [CRL8355, 6,7-Dimethoxy-3-phenyl-1,4-dihydro-4-quinolinone]	99.5%
COc1ccc(-c2cn(C)c3c(OC)ccc(OC)c3c2=O)cc1 [CRL8371]	25.2%
